Where two headings read alike, the source gives them in different places.
How the values were obtained:
[1] = Metabolite profiling and quantification in urine (HPLC-MS2 with on-line radioactivity detector); format: in vivo, humans; conditions: human, oral 207 μmol 14C-EC, mean ± SEM n=8
Description: (§1) The study was a single-center, open-label, and non-randomized study with two distinct elements: a run-in phase to establish a more defined dietary background of dietary flavanols and procyanidins and the subsequent ^14C-EC ADME study (Fig. 1B). Participants (n = 12) were enrolled in the run-in phase (day –17 to day –4) and asked to supplement their daily diet for 14 days with a commercially available flavanol-containing cocoa-based drink (250 mg cocoa flavanols; 40 mg of EC). This was followed by a 4-day period (day –4 to 0) of a low-flavanol diet. One day (study day -1) prior to the initialization of the ^14C-EC ADME study, all eligible participants were accommodated under controlled conditions at a metabolic research facility (Covance Clinical Pharmacology Inc., Wisconsin) until completion of the study. Based on the compliance of the first part of the study, 8 participants were selected to participate in the ^14C-EC ADME study. During the ^14C-EC ADME study (Fig. 1B.), volunteers received a low-flavanol, standardized high-fiber diet, and were encouraged to maintain an adequate level of hydration (water ad libitum). Volunteers were asked to fast for 8 h before the initiation of the study and for at least 4 h after the intake of the ^14C-EC test drink (water ad libitum). Venous blood samples were taken using Vacutainer collection tubes, containing potassium EDTA at 0 h (just prior to ^14C-EC ingestion), and at 0.25, 0.5, 1, 1.5, 2, 2.5, 3, 4, 6, 8, 10, 12, 16, 24, 36, and 48 h after test drink consumption. Plasma was obtained by whole blood centrifugation at 2000 × g for 15 min at 5 °C, separated into aliquots and stored at −80 °C until analysis. All urine and feces from the time just prior to the consumption of the test drink were collected at different time intervals for radioactivity and metabolite profiling. Clinical parameters and laboratory evaluations of participants were assessed at screening, on study day –1, and after completing the study, as detailed in Supplementary Methods.
(§2) Samples were processed as described previously[18] and analyzed by HPLC-MS^2 in conjunction with an on-line HPLC-radioactivity monitor as described in SI Materials and Methods. Identification of metabolites involved comparing the retention time with authentic standards and MS^2 fragmentation patterns (Supplementary Methods). Quantification of metabolites in urine was based on HPLC radioactivity peak area (limit of quantification: 10^3 dpm). Due to the low levels of radioactivity, quantification in plasma was based on targeted HPLC-MS^2 using standard curves obtained with authentic standards (Supplementary Methods).
HPLC-MS identifications of radiolabeled [2-14C](−)-epicatechin metabolites in urine Urine was analyzed with radioactivity and mass spectrometry (MS) detection using a 250 mm x 4.6 mm i.d. 5 µm Luna Phenyl-Hexyl column (Phenomenex, Macclesfield, UK) […]
formic acid. Metabolite identification was performed by 1) co-chromatography of metabolites with reference compounds and a comparison of their MS fragmentation patterns 2, 2) by comparing m/z fragmentation patterns with earlier in-house observed […]
patterns to databases of metabolites reported in earlier polyphenol feeding studies5-7.
Supplementary Table S2, which also provides information on the MSI MI (Metabolite Standards Initiative – Metabolites Identification) level, a confidence level for identification where level 1 stands for fully elucidated (i.e., by comparison with a standard) and level 2 for a well characterized, but not yet fully structurally elucidated 8

[2] = Metabolite profiling and pharmacokinetics in plasma (targeted HPLC-MS2); format: in vivo, humans; conditions: human plasma, oral 60 mg 14C-EC; for AUC0-24h / Cmax / T1/2 (elimination half-life) / Tmax / AUC(0-t) / half-life: mean ± SEM n=8; for AUC(0-t): read-out: AUC0-24h; for half-life: read-out: T1/2 (elimination half-life) (converted)
Description: as §1, §2
Data are expressed as mean values ± standard error, or as otherwise specified. Pharmacokinetic parameters were calculated using non-compartmental analysis with WinNonlin (Pharsight Corporation, Version 5.2).
5-20% acetonitrile in 0.1 % formic acid. Supplementary Table S2 provides details of HPLC retention times and the m/z values that were monitored.
Supplementary Table S2. Detection of (−)-epicatechin metabolites. HPLC retention times and selected reaction monitoring ions used for the HPLC-MS analysis of (−)-epicatechin metabolites in plasma. […]
Structurally related (-)-epicatechin metabolites in humans: assessment using de novo chemically synthesized authentic standards. Free Radic Biol Med 52, 1403- […]
3 Borges, G. et al. Bioavailability of multiple components following acute ingestion of a polyphenol-rich juice drink. Mol Nutr Food Res 54 Suppl 2, S268-277, […]
4 Stalmach, A. et al. Absorption, metabolism, and excretion of green tea flavan-3-ols in humans with an ileostomy. Mol Nutr Food Res 54, 323-334,

Row | Metabolite present in urine, collection period 0–48 h [1] [μ mol] | Metabolite present in urine, collection period 0–4 h ([1]; – = not detected) [μ mol] | Metabolite present in urine, collection period 4–8 h ([1]; – = not detected) [μ mol] | AUC0-24h [2] [nM·h] | Cmax [2] [nM] | T1/2 (elimination half-life) [2] [h] | Tmax [2] [h] | Metabolite present in urine, collection period 8–12 h ([1]; – = not detected) [μ mol] | Metabolite present in urine, collection period 12–24 h ([1]; – = not detected) [μ mol] | Metabolite present in urine, collection period 24–48 h ([1]; – = not detected) [μ mol] | Cmax ([2]; male) [nM] | AUC(0-t) ([2]; male) [µM·h] | half-life ([2]; male) [min] | Tmax ([2]; male, read-out: Tmax) [h] | concentration at 24 h ([2]; male, read-out: Plasma concentration 24 h after ingestion) [nM] | SMILES
1 | 0.4 ± 0.2 | 0.3 ± 0.1 | 0.1 ± 0.1 | 166 ± 54 | 33 ± 5 | 2.6 ± 0.5 | 1.4 ± 0.2 |  |  |  |  |  |  |  |  | COc1ccc([C@H]2Oc3cc(OS(=O)(=O)O)cc(O)c3C[C@H]2O)cc1O [4′-O-Methyl-(−)-epicatechin-7-sulfate]
2 | 2.3 ± 0.7 |  | 1.3 ± 0.5 | 835 ± 355 | 54 ± 14 | 6.5 ± 0.8 | 4.9 ± 1.3 | 0.5 ± 0.3 | 0.5 ± 0.1 |  |  |  |  |  |  | O=C(O)CCC(O)Cc1ccc(O[C@@H]2O[C@H](C(=O)O)[C@@H](O)[C@H](O)[C@H]2O)c(O)c1 (some centres unmarked) [5-(3′-Hydroxyphenyl)-γ-hydroxyvaleric acid-4′-O-glucuronide]
3 | 38.0 ± 4.7 | 3.6 ± 1.1 | 16.0 ± 3.0 |  |  |  |  | 9.8 ± 2.0 | 8.1 ± 2.9 | 0.5 ± 0.5 | 272 ± 56 | 7.59 ± 2.68 | 378 ± 102 | 6.4 ± 1 | ~50 | O=C1CCC(Cc2ccc(O)c(OS(=O)(=O)O)c2)O1 (centres unmarked) [5-(4′-hydroxyphenyl)-γ-valerolactone-3′-sulfate]
4 | 18.6 ± 2.5 | 8.0 ± 1.4 | 5.7 ± 1.3 |  |  |  |  | 2.9 ± 0.8 | 2.0 ± 0.8 |  | 359 ± 23 | 1.62 ± 0.332 | 120 ± 66 | 0.8 ± 0.1 |  | O=C(O)[C@H]1O[C@@H](Oc2cc([C@H]3Oc4cc(O)cc(O)c4C[C@H]3O)ccc2O)[C@H](O)[C@@H](O)[C@@H]1O [(−)-Epicatechin-3′-O-glucuronide, (−)-epicatechin-3′-O-β-D-glucuronide]
5 | 7.7 ± 0.9 | 6.0 ± 0.7 | 1.2 ± 0.4 |  |  |  |  | 0.3 ± 0.1 | 0.2 ± 0.2 |  | 191 ± 17 | 0.633 ± 0.135 | 120 ± 18 | 1.1 ± 0.1 |  | O=S(=O)(O)Oc1cc([C@H]2Oc3cc(O)cc(O)c3C[C@H]2O)ccc1O [(−)-Epicatechin-3′-sulfate, (−)-epicatechin-3′-sulfate]
6 | 1.3 ± 0.2 | 1.3 ± 0.2 |  | 92 ± 25 | 32 ± 4 | 1.9 ± 0.3 | 0.8 ± 0.1 |  |  |  |  |  |  |  |  | O=S(=O)(O)Oc1cc(O)cc2c1C[C@@H](O)[C@@H](c1ccc(O)c(O)c1)O2 [(−)-Epicatechin-5-sulfate]
